Earlier results, collected in patent US20250312405A1, “FOOD SUPPLEMENT COMPRISING NEOHESPERIDIN DIHYROCHALCONE AND PEPPERMINT OIL” (priority 2022, published 2025).

What was measured:
Campylobacter jejuni [1] = conditions: doses of 0.25 mM
Campylobacter jejuni [2] = conditions: dose of 0.2 mM
[3] = system: HT-29 cells co-cultured with immune cells; conditions: doses of 50 μmoles

Cc1ccc(C(C)C)cc1O [carvacrol]
effect on the motility of Campylobacter jejuni (Campylobacter jejuni [1]): had an effect on the motility | cell invasion (Campylobacter jejuni [2]): reduced cell invasion

COc1cc(/C=C/C(=O)CC(=O)/C=C/c2ccc(O)c(OC)c2)ccc1O [curcumin]
immune-induced epithelial disfunction by Campylobacter jejuni [3]: mitigates the immune-induced epithelial disfunction
